Source: PubChem BioAssay (NCI)
“And” between values parts separate entries of the source, which are not always exact repeats. Equal values may be shown once.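 Dose response: 5 concentrations. Exposure: 48 h. Format: 96-well plates. Endpoint: linear interpolation; highest concentration if not reached. The concentration for 50% growth inhibition is given as GI50. TGI marks complete inhibition of growth.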

How the values were obtained:
Test in all cases: NCI-60 cell line screen, 48 h
UO-31 renal = test system: UO-31 renal
NCI/ADR-RES ovarian = test system: NCI/ADR-RES ovarian
DU-145 prostate = test system: DU-145 prostate
HCT-116 colon = test system: HCT-116 colon
HL-60(TB) leukemia = test system: HL-60(TB) leukemia
SK-MEL-28 melanoma = test system: SK-MEL-28 melanoma
KM12 colon = test system: KM12 colon
EKVX NSCLC = test system: EKVX NSCLC
BT-549 breast = test system: BT-549 breast
NCI-H522 lung = test system: NCI-H522 lung

SMILES | TGI (UO-31 renal) | TGI (NCI/ADR-RES ovarian) | TGI (DU-145 prostate) | TGI (HCT-116 colon) | TGI (HL-60(TB) leukemia) | TGI (SK-MEL-28 melanoma) | TGI (KM12 colon) | TGI (EKVX NSCLC) | TGI (BT-549 breast) | TGI (NCI-H522 lung) | GI50 (UO-31 renal) | GI50 (NCI/ADR-RES ovarian) | GI50 (DU-145 prostate) | GI50 (HCT-116 colon) | GI50 (HL-60(TB) leukemia) | GI50 (SK-MEL-28 melanoma) | GI50 (KM12 colon) | GI50 (EKVX NSCLC) | GI50 (BT-549 breast) | GI50 (NCI-H522 lung)
CC(=O)N1c2ccccc2C23CCN4CC5=CCOC(O)C(C5CC42)C13 (stereo not given) | > 100 µM | > 100 µM | > 100 µM | > 100 µM | > 100 µM | > 100 µM | > 100 µM | > 100 µM | > 100 µM | > 100 µM |  |  |  |  |  |  |  |  |  | 
NC(N)=NC(N)=NCCc1ccccc1 | > 100 µM | > 100 µM | > 100 µM | > 100 µM | > 100 µM | > 100 µM | > 100 µM | > 100 µM | > 100 µM | > 100 µM | 98.9 µM and 38.5 µM | > 100 µM | > 100 µM | 92.5 µM and 36.3 µM | 77.4 µM and > 100 µM | > 100 µM | > 100 µM | 6.79 µM and 7.74 µM | > 100 µM and 32.8 µM | 44.7 µM and > 100 µM
O=C1/C(=C\c2ccccc2)c2ccccc2N1Cc1ccccc1 | 15.8 µM | 19.2 µM | 17 µM | 12.4 µM | > 31.6 µM | 15.7 µM | 13.9 µM | 17.1 µM | 14.2 µM | 22 µM |  |  |  |  |  |  |  |  |  | 
c1ccc(-c2cc(-c3cc(-c4ccccn4)[nH]n3)n[nH]2)nc1 | 73.2 µM | > 100 µM | > 100 µM | > 100 µM | > 100 µM | > 100 µM | > 100 µM | > 100 µM | > 100 µM | > 100 µM |  |  |  |  |  |  |  |  |  | 
O=c1cccc(C#CCCCCOC2CCCO2)o1 (stereo not given) | > 57.6 µM | > 18 µM | > 80 µM | > 23.2 µM | 52.9 µM | > 56.8 µM | > 45.8 µM | 39 µM | 26.4 µM | > 64.9 µM | 9.07 µM | 12.2 µM | 10.3 µM | 6.39 µM | 20.7 µM | 23.9 µM | 20.4 µM | 8.27 µM | 3.35 µM | 3.77 µM
